According to PubChem BioAssay (NCI):
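These data come from cells grown in 96-well plates and exposed to compound for 48 hours at five concentrations. At the GI50, growth is halved. At the TGI there is no net growth.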

What was measured:
Assay in all cases: growth of human tumour cells (NCI), 48 h
[1] = system: HCT-15 colon
[2] = system: SN12C renal
[3] = system: NCI/ADR-RES ovarian
[4] = system: NCI-H23 lung
[5] = system: NCI-H226 lung
[6] = system: TK-10 renal
[7] = system: UACC-62 melanoma
[8] = system: HS 578T breast
[9] = system: OVCAR-3 ovarian
[10] = system: HOP-62 NSCLC
[11] = system: CAKI-1 renal
[12] = system: HL-60(TB) leukemia
[13] = system: PC-3 prostate
[14] = system: M14 melanoma
[15] = system: MCF7 breast
[16] = system: RPMI-8226 leukemia
[17] = system: MOLT-4 leukemia
[18] = system: SR leukemia
[19] = system: OVCAR-4 ovarian
[20] = system: CCRF-CEM leukemia
[21] = system: SK-OV-3 ovarian
[22] = system: SK-MEL-2 melanoma
[23] = system: OVCAR-5 ovarian
[24] = system: UO-31 renal
[25] = system: 786-0 renal
[26] = system: NCI-H460 lung
[27] = system: U251 CNS
[28] = system: SF-295 CNS
[29] = system: UACC-257 melanoma
[30] = system: MALME-3M melanoma
[31] = system: T-47D breast
[32] = system: SK-MEL-5 melanoma
[33] = system: BT-549 breast
[34] = system: MDA-MB-231 breast
[35] = system: SF-268 CNS
[36] = system: KM12 colon
[37] = system: RXF 393 renal
[38] = system: HT29 colon
[39] = system: SNB-75 CNS
[40] = system: COLO 205 colon
[41] = system: HCT-116 colon
[42] = system: A498 renal
[43] = system: LOX IMVI melanoma
[44] = system: SK-MEL-28 melanoma
[45] = system: MDA-MB-435
[46] = system: SNB-19 CNS
[47] = system: OVCAR-8 ovarian
[48] = system: HOP-92 NSCLC
[49] = system: HCC-2998 colon
[50] = system: DU-145 prostate
[51] = system: IGROV1 ovarian
[52] = system: A549 NSCLC
[53] = system: SW-620 colon
[54] = system: SF-539 CNS
[55] = system: K-562 leukemia
[56] = system: NCI-H522 lung
[57] = system: ACHN renal

In the case of `NS(=O)(=O)c1ccc(-n2nc(-c3ccc(Br)cc3)ccc2=O)cc1`, the GI50 [1] is reported as over 10 µM, the TGI [1] is reported as over 10 µM and the GI50 [2] is reported as over 10 µM. The TGI [2] was over 10 µM, the GI50 [3] was over 10 µM and the TGI [3] was over 10 µM. The GI50 [4] was over 10 µM, the TGI [4] was over 10 µM and the GI50 [5] was over 10 µM. It also gave a TGI [5] of over 10 µM, a GI50 [6] of over 10 µM and a TGI [6] of over 10 µM. The GI50 [7] was over 10 µM, the TGI [7] was over 10 µM and the GI50 [8] was over 10 µM. It also gave a TGI [8] of over 10 µM, a GI50 [9] of over 10 µM and a TGI [9] of over 10 µM. The GI50 [10] was over 10 µM, the TGI [10] was over 10 µM and the GI50 [11] was over 10 µM. For the same compound, the TGI [11] was over 10 µM, the GI50 [12] was over 10 µM and the TGI [12] was over 10 µM. It also gave a GI50 [13] of over 10 µM, a TGI [13] of over 10 µM and a GI50 [14] of over 10 µM. For the same compound, the TGI [14] was over 10 µM, the GI50 [15] was over 10 µM and the TGI [15] was over 10 µM. The GI50 [16] was over 10 µM, the TGI [16] was over 10 µM and the GI50 [17] was over 10 µM. It also gave a TGI [17] of over 10 µM, a GI50 [18] of 8.85 µM and a TGI [18] of over 10 µM. The GI50 [19] was over 10 µM, the TGI [19] was over 10 µM and the GI50 [20] was over 10 µM. For the same compound, the TGI [20] was over 10 µM, the GI50 [21] was over 10 µM and the TGI [21] was over 10 µM. The GI50 [22] was over 10 µM, the TGI [22] was over 10 µM and the GI50 [23] was over 10 µM. It also gave a TGI [23] of over 10 µM, a GI50 [24] of over 10 µM and a TGI [24] of over 10 µM. It also gave a GI50 [25] of over 10 µM, a TGI [25] of over 10 µM and a GI50 [26] of over 10 µM. It also gave a TGI [26] of over 10 µM, a GI50 [27] of over 10 µM and a TGI [27] of over 10 µM. The GI50 [28] was over 10 µM, the TGI [28] was over 10 µM and the GI50 [29] was over 10 µM. It also gave a TGI [29] of over 10 µM, a GI50 [30] of 7.71 µM and a TGI [30] of over 10 µM. The GI50 [31] was over 10 µM, the TGI [31] was over 10 µM and the GI50 [32] was over 10 µM. The TGI [32] was over 10 µM, the GI50 [33] was over 10 µM and the TGI [33] was over 10 µM. It also gave a GI50 [34] of over 10 µM, a TGI [34] of over 10 µM and a GI50 [35] of over 10 µM. The TGI [35] was over 10 µM, the GI50 [36] was over 10 µM and the TGI [36] was over 10 µM. The GI50 [37] was over 10 µM, the TGI [37] was over 10 µM and the GI50 [38] was over 10 µM. It also gave a TGI [38] of over 10 µM, a GI50 [39] of over 10 µM and a TGI [39] of over 10 µM. For the same compound, the GI50 [40] was over 10 µM, the TGI [40] was over 10 µM and the GI50 [41] was over 10 µM. The TGI [41] was over 10 µM, the GI50 [42] was over 10 µM and the TGI [42] was over 10 µM. For the same compound, the GI50 [43] was over 10 µM, the TGI [43] was over 10 µM and the GI50 [44] was over 10 µM. It also gave a TGI [44] of over 10 µM, a GI50 [45] of 3.72 µM and a TGI [45] of over 10 µM. For the same compound, the GI50 [46] was over 10 µM, the TGI [46] was over 10 µM and the GI50 [47] was over 10 µM. For the same compound, the TGI [47] was over 10 µM, the GI50 [48] was over 10 µM and the TGI [48] was over 10 µM. The GI50 [49] was over 10 µM, the TGI [49] was over 10 µM and the GI50 [50] was over 10 µM. For the same compound, the TGI [50] was over 10 µM, the GI50 [51] was over 10 µM and the TGI [51] was over 10 µM. It also gave a GI50 [52] of over 10 µM, a TGI [52] of over 10 µM and a GI50 [53] of over 10 µM. For the same compound, the TGI [53] was over 10 µM, the GI50 [54] was over 10 µM and the TGI [54] was over 10 µM. For the same compound, the GI50 [55] was 4.85 µM, the TGI [55] was over 10 µM and the GI50 [56] was 2.09 µM. For the same compound, the TGI [56] was over 10 µM, the GI50 [57] was over 10 µM and the TGI [57] was over 10 µM.
